The source of these data is patent US9480702B2, “Use of chemically modified heparin derivates in sickle cell disease” (DILAFORETTE AB, priority 2011, dated 2016).

A short description of data set [1]: APTT in citrate plasma of dosed rats. The conditions noted are these: i.v. dosing, heparin = 1. The class given is in vivo, Sprague-Dawley rats. How it is done: (§1) Test procedures were as follows:
Citrate stabilized plasma was prepared from the blood.
(§2) Saline: (Negative Control) • 3.

Data set [2] concerns factor Xa. The note with it: comparison value; cited from earlier work.
The conditions of data set [3]: daily prophylactic dose, four patients; cited from earlier work.
The next data set concerns the target T1, human P-selectin (Homo sapiens, UniProt P16109).
T1 construct: Fc (IgG Fc fusion partner)
Nature of the data set: Binding to P-selectin analyzed by optical biosensor (surface plasmon resonance, Biacore 2000). The conditions noted are these: read-out: apparent KD. How it is done:
The heparin derivatives were desalted and transferred into running buffer using desalting columns. The molar concentrations of the eluates were determined by analysis of UA content (mg/ml) using the phenylphenol method (Blumenkrantz et al. 1973 Anal Biochem 54, 484-9). […] The data was analyzed using BIAevaluation software, version 3. To prepare the biosensor assay, the capturing affinity purified goat anti-human IgG Fc antibody was immobilized onto a carboxymethyl dextran chip. The antibody was injected at a concentration of 50 μg/ml in 50 mM sodium acetate buffer, pH 5.0 for 12 min at […] resulting in a final response of approximately 16,200 response units (RU) in flow cell 1 and 13,400 RU in flow cell 2. Remaining activated groups were blocked with an injection of ethanolamine-HCl. The P-selectin/Fc chimera was captured onto the antibody surface in flow cell 2 (Bachelet L. et al. 2009, Biochim et Biophys Acta 1790, 1416), by injecting the molecule at a concentration of 35 ug/mL, using running buffer (10 mM Hepes, 150 mM NaCl, 1 mM CaCl2, 0.005% Tween-20, pH 7.4, filtered 0.02 μm) in the mobile phase. […] The binding of different heparin derivatives to P-selectin was analyzed using running buffer at 20 μl/min. After the association and dissociation phase of each sample, regeneration of the surface was performed using running buffer containing 0.8 M NaCl. Data from the reference surface was subtracted from the data from the P-selectin surface. Stability of the P-selectin surface was verified by measuring the response from injections of 0.1 mg/mL heparin in the beginning and the end of each experiment.
The response data at steady-state was plotted against the concentration (data not shown). The data was analyzed using non-linear regression, assuming 1:1 binding. […] The peak value (Mp) was used instead of the (higher) Mw value when calculating the molar concentrations of UFH.
Background: In SPR one partner is held on a chip, and binding of the other changes the refractive index at the surface.

In data set [4] the target is T2, factor IIa (Homo sapiens, UniProt P00734+P01008). The conditions noted are these: comparison value; cited from earlier work.
Data set [5] is described as follows: Bleeding time after tail incision in rats. The class given is in vivo, Sprague-Dawley rats. The note with it: for Estimated equipotent doses with respect to effects on bleeding time, normalized vs. heparin: rats, i.v. dosing, heparin = 1. How it is done: as §1
The incision was 9 mm long and 1 mm deep and was standardized using a template device. Blood was blotted from the incision until bleeding stopped. The time during which visible bleeding could be observed was measured, for up to 25 minutes. The longer the bleeding time, the more pronounced the anti-coagulant effects of the administered agent.
as §2

For data set [6] the following is noted: cited from earlier work.
Data set [7] relates to SS RBC adhesion to endothelial cells treated with IL-13 and histamine. In words: In vitro sickle red blood cell adhesion to HUVECs in flow chamber. The class given is cell-based, human. The note with it: for Inhibition of SS RBC adhesion to endothelial cells (overall): HUVECs stimulated with IL-13 and histamine. Here is the method: Primary HUVECs (passage 4 only) were cultured to confluency on gelatin-coated slides in […] basal medium 2 (EBM2; Clonetics, Walkersville, Md.) supplemented with endothelial growth medium 2 (EGM2; Clonetics, Walkersville, Md.). For each assay, a gelatin coated slide with HUVECs grown to confluence was mounted inside a graduated height flow chamber. Both untreated and IL-13/histamine-stimulated slides were initially studied with each SS RBC sample. Subsequent experiments then compared adhesion with and without potential inhibitors of adhesion.
Human blood samples from patients homozygous for hemoglobin S were collected into citrate tubes.
In vitro studies of cell adhesion exposed to flowing conditions represent in vivo events, as compared to adhesion assays in which cells are simply allowed to incubate overlaid on a chemical or cellular substrate (e.g. laminin or endothelial cells) and then washed off by either non-controlled forces (e.g. pipette washes) or controlled forces (e.g. rotary motion devices). Flow chambers can produce either a constant shear stress throughout the chamber or a variable shear stress, produced by creating a variable height for the chamber.
Surface expression of P-selectin on IL-13 and histamine stimulated and unstimulated endothelial cells (HUVECs) were tested by flow cytometry. Measurement of the ability of SS RBC to adhere to these endothelial cells was performed in flow chambers. Negative control experiments included untreated endothelial cells, so that SS RBC adhesion to treated and untreated cells could be compared.
Multiple dose-finding experiments were conducted.

Data set [8] addresses T2, factor IIa. The conditions noted are these: measured values on the produced DF02.
Data set [9] deals with SS RBC adhesion to the endothelium. From the text: These experiments utilize a previously described animal model (Zennadi et al. Blood 2007), in which window chambers are first implanted into the flanks of nude mice. Three to five days later, human normal or sickle red cells are infused into the mouse (usually through the tail vein) pre-treated with TNF-α (to induce inflammation and upregulate P-selectin expression); mice treated with vehicle only may be studied as controls. Female mice (nu−/nu−) 8-12 weeks in age from Jackson Laboratories, Bar Harbor, Me., were used to perform experiments described.
RBCs to be infused are pre-labelled with a fluorescent dye. The cells' adhesion may then be observed in subdermal blood vessels visible through the previously implanted window chambers. […] In addition, in some of these experiments, blood samples were drawn during the observation period in order to quantitate specific variables, such as cell survival. This model has the great advantages of providing direct visualization of cells in the context of whole blood and of allowing circulation of transfused cells under normal circulatory pressures.

Data set [10] deals with factor Xa. The note with it: measured values on the produced DF02.
[11] abbreviates: steady-state response, non-linear regression assuming 1:1 binding, P-selectin/Fc chimera captured on chip.
[12] abbreviates: injected before and after induction of vaso-occlusion.

“Also recorded” adds a separate entry of the source. Read-outs that look alike come from different tables or passages of the source.

T1 sequence (P16109 with tags, fused parts or gaps limits assumed): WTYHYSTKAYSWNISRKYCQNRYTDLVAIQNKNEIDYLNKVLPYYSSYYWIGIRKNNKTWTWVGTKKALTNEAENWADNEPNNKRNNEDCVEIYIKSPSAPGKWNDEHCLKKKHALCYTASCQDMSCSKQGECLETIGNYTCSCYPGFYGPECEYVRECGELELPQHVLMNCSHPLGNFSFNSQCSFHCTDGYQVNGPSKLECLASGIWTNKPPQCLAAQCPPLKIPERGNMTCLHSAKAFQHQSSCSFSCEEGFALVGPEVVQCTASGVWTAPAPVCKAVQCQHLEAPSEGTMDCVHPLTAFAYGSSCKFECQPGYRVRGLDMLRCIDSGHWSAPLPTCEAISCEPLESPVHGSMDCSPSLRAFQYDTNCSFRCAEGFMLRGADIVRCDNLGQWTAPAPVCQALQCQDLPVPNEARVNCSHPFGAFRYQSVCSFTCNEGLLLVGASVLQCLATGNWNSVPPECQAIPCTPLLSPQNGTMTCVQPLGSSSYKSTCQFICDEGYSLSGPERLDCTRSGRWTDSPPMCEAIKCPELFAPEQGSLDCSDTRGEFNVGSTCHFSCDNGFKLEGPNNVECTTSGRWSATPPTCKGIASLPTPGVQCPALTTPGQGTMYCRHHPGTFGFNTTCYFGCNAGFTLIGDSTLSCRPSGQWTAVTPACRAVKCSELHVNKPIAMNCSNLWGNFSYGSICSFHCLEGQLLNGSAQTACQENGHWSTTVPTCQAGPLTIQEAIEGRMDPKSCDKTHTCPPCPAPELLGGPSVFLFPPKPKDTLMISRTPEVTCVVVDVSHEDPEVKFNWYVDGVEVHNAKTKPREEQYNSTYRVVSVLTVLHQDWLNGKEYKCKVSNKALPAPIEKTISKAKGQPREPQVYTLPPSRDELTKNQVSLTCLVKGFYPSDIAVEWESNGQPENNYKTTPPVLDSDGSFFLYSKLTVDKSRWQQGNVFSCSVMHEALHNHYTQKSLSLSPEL

For Heparin Sodium, the “Estimated equipotent doses with respect to effects on APTT, normalized vs. heparin” value in [1] is on record as 1. Further, the “Corresponding value of specific anticoagulant activity (anti-factor Xa)” value with factor Xa [2] is recorded as “at least 180 IU/mg”. The “Pain and days at hospital” value in data set [3] is “pain reduction and fewer days at hospital”. Further, the Kd on human P-selectin (setting [11]) turned out to be 200 nM. On factor IIa [4], the “Corresponding value of specific anticoagulant activity (anti-factor IIa)” value is reported as “at least 180 IU/mg”. Besides, the “Anti-coagulant effect (bleeding time and coagulation parameters)” value in data set [5] (adult rats, i.v.) is given as “profound dose-related effects on all parameters investigated”. Further, the “Estimated equipotent doses with respect to effects on bleeding time, normalized vs. heparin” value in [5] was 1.
With Tinzaparin natrium, in [6] (clinical study), the Bleeding events result is “several cases of bleeding events”. Also, in data set [6] (sickle VOC), the Duration of hospitalization entry was “significantly shortened” and the “Duration of the most-severe pain scores” value is listed as “significantly shortened”. Further, in [7], the “Inhibition of SS RBC adhesion to endothelial cells (overall)” value was “quite effective in reducing SS RBC adhesion”. Moreover, the Kd on human P-selectin (setting [11]) was 4000 nM.
Consider sevuparin sodium [DF02], for which the “Estimated equipotent doses with respect to effects on APTT, normalized vs. heparin” value in data set [1] is 30-40. The “Effect on PT” value reads like this: (adult rats) “too weak to allow for comparative estimates”; (juvenile rats) “weak”. For the same substance, on factor IIa [8], the antiIIa activity result was “less than 10 IU/mg”. For the same substance, in [9] (as compared to a saline injection), the “Vessel occupancy, decrease” value is 50%. Besides, the “Effect on adhered SS-RBC” value in data set [9] (setting [12]) was “inhibition and reversal of adhered SS-RBC”. The “Effect on blood flow” value in data set [9] (setting [12]) is on record as “partial normalization of the blood flow”. The “Number of vessels that reached a normalized blood flow” value in data set [9] (mouse, in vivo) is on record as “dose dependent effect”. Moreover, the antiXa activity entry with factor Xa [10] was “less than 10 IU/mg”. Also, the “Effect on SS RBC adhesion” value in [7] (100 μg/ml) was “appeared to inhibit adhesion as much as did higher concentrations; also recorded: easily detectable”; in data set [7] (10 and 50 μg/ml), “little effect”. Moreover, the “Inhibition of SS RBC adhesion compared to tinzaparin” value in [7] (400 μg/ml, most samples) is reported as “equivalent to the same concentration of tinzaparin”. In data set [7], the “Inhibition of SS RBC adhesion to endothelial cells (overall)” value is listed as “able to inhibit SS RBC adhesion”. Also, on human P-selectin, the Kd was 700 nM. Further, the “Anti-coagulant effect (bleeding time and coagulation parameters)” value in [5] (adult rats, i.v.) is recorded as “reduced anti-coagulant effect”; in data set [5] (juvenile rats of age 14±1 days), “reduced anti-coagulant effect”. Also, the “Estimated equipotent doses with respect to effects on bleeding time, normalized vs. heparin” value in data set [5] was 30-50.
